# Measurements: patent publication US20250250230A1, “HETEROCYCLIC COMPOUND” (TAKEDA PHARMACEUTICAL COMPANY LIMITED, priority 2022, published 2025)
# Target: T1, human orexin type 2 receptor (Homo sapiens, UniProt O43614)
# T1 construct: expressed in transfected cells
# T1 sequence (O43614 1-444): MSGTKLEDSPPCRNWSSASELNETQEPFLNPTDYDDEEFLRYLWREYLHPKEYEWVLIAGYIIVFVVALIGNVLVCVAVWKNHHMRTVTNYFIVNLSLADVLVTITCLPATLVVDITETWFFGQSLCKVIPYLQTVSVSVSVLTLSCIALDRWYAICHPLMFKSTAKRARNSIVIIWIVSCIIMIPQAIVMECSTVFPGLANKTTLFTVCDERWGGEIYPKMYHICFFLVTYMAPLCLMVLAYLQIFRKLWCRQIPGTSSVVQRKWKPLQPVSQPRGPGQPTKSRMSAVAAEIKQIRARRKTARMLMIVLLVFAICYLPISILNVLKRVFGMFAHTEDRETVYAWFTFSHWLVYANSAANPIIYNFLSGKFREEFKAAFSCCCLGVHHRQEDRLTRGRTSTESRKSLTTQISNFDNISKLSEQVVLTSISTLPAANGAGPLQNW
# Test: Measurement of orexin type 2 receptor agonist activity (calcium fluorescence, Fluo-4 AM, FDSS)
# Type: cell-based
# Conditions: test compound 3 μM; CHO cells expressing human OX2 receptor; DMSO = 0%, orexin A (human) = 100%
# In short: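 Agonist response scaled between vehicle (0%) and human orexin A at 10 nM final (100%), from 2-min kinetic Fluo-4 fluorescence reads. Stable hOX2R CHO-K1 clone, dye-loaded in HBSS/20 mM HEPES/0.1% BSA with 1.25 mM probenecid before compound addition.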
row,"OX2R agonist activity (3 μM, %) [%]",Compound
1,91,"CCS(=O)(=O)NC[C@@H]1[C@H](F)CN1C(=O)C1CC1(F)c1ccc(F)cc1-c1ccccc1Cl (stereo partly drawn) [Example 440, N-({(2R,3R)-1-[(1R,2R)-2-(2′-chloro-5-fluoro[1,1′-biphenyl]-2-yl)-2-fluorocyclopropane-1-carbonyl]-3-fluoroazetidin-2-yl}methyl)ethanesulfonamide, or N-({(2R,3R)-1-[(1S,2S)-2-(2′-chloro-5-fluoro[1,1′-biphenyl]-2-yl)-2-fluorocyclopropane-1-carbonyl]-3-fluoroazetidin-2-yl}methyl)ethanesulfonamide]"
2,90,"CCS(=O)(=O)NC[C@@H]1[C@H](F)CN1C(=O)C1CC1(F)c1ccccc1-c1ccccc1Cl (stereo partly drawn) [Example 441, N-({(2R,3R)-1-[(1R,2R)-2-(2′-chloro[1,1′-biphenyl]-2-yl)-2-fluorocyclopropane-1-carbonyl]-3-fluoroazetidin-2-yl}methyl)ethanesulfonamide, or N-({(2R,3R)-1-[(1S,2S)-2-(2′-chloro[1,1′-biphenyl]-2-yl)-2-fluorocyclopropane-1-carbonyl]-3-fluoroazetidin-2-yl}methyl)ethanesulfonamide]"
3,100,"CCS(=O)(=O)NC[C@@H]1[C@H](F)CN1C(=O)C1CC1(F)c1ccccc1-c1ccccc1F (stereo partly drawn) [Example 442, N-({(2R,3R)-3-fluoro-1-[(1R,2R)-2-fluoro-2-(2′-fluoro[1,1′-biphenyl]-2-yl)cyclopropane-1-carbonyl]azetidin-2-yl}methyl)ethanesulfonamide, or N-({(2R,3R)-3-fluoro-1-[(1S,2S)-2-fluoro-2-(2′-fluoro[1,1′-biphenyl]-2-yl)cyclopropane-1-carbonyl]azetidin-2-yl}methyl)ethanesulfonamide]"
4,100,"CNS(=O)(=O)NC[C@@H]1[C@H](F)CN1C(=O)[C@@H]1C[C@@]1(F)c1ccc(Cl)cc1-c1c(F)cccc1F [Example 443, N-({(2R,3R)-1-[(1S,2S)-2-(5-chloro-2′,6′-difluoro[1,1′-biphenyl]-2-yl)-2-fluorocyclopropane-1-carbonyl]-3-fluoroazetidin-2-yl}methyl)-N′-methylsulfuric diamide]"
5,96,"CC(C)S(=O)(=O)NC[C@@H]1[C@H](F)CN1C(=O)[C@@H]1C[C@@]1(F)c1ccc(F)cc1-c1c(F)cccc1F [Example 444, N-({(2R,3R)-3-fluoro-1-[(1S,2S)-2-fluoro-2-(2′,5,6′-trifluoro[1,1′-biphenyl]-2-yl)cyclopropane-1-carbonyl]azetidin-2-yl}methyl)propane-2-sulfonamide]"
6,76,"O=C([C@@H]1C[C@@]1(F)c1ccc(F)cc1-c1c(F)cccc1F)N1C[C@@H](F)[C@H]1CNS(=O)(=O)CC1CC1 [Example 445, 1-cyclopropyl-N-({(2R,3R)-3-fluoro-1-[(1S,2S)-2-fluoro-2-(2′,5,6′-trifluoro[1,1′-biphenyl]-2-yl)cyclopropane-1-carbonyl]azetidin-2-yl}methyl)methanesulfonamide]"
7,100,"O=C([C@@H]1C[C@@]1(F)c1ccc(F)cc1-c1c(F)cccc1F)N1C[C@@H](F)[C@H]1CNS(=O)(=O)N1CCC1 [Example 446, N-({(2R,3R)-3-fluoro-1-[(1S,2S)-2-fluoro-2-(2′,5,6′-trifluoro[1,1′-biphenyl]-2-yl)cyclopropane-1-carbonyl]azetidin-2-yl}methyl)azetidine-1-sulfonamide]"
8,90,"O=C([C@@H]1C[C@@]1(F)c1ccc(F)cc1-c1c(F)cccc1F)N1C[C@@H](F)[C@H]1CNS(=O)(=O)NC1CC1 [Example 447, N-cyclopropyl-N′-({(2R,3R)-3-fluoro-1-[(1S,2S)-2-fluoro-2-(2′,5,6′-trifluoro[1,1′-biphenyl]-2-yl)cyclopropane-1-carbonyl]azetidin-2-yl}methyl)sulfuric diamide]"
9,98,"O=C([C@@H]1C[C@@]1(F)c1ccc(F)cc1-c1c(F)cccc1F)N1C[C@@H](F)[C@H]1CNS(=O)(=O)C(F)F [Example 448, 1,1-difluoro-N-({(2R,3R)-3-fluoro-1-[(1S,2S)-2-fluoro-2-(2′,5,6′-trifluoro[1,1′-biphenyl]-2-yl)cyclopropane-1-carbonyl]azetidin-2-yl}methyl)methanesulfonamide]"

# More lines, now with the values behind:
row,Compound,"OX2R agonist activity (3 μM, %) [%]"
1,"O=C([C@@H]1C[C@@]1(F)c1ccc(F)cc1-c1c(F)cccc1F)N1C[C@@H](F)[C@H]1CNS(=O)(=O)C1CC1 [Example 429, N-({(2R,3R)-3-fluoro-1-[(1S,2S)-2-fluoro-2-(2′,5,6′-trifluoro[1,1′-biphenyl]-2-yl)cyclopropane-1-carbonyl]azetidin-2-yl}methyl)cyclopropanesulfonamide]",99
2,"O=C([C@@H]1C[C@@]1(F)c1ccc(F)cc1-c1c(F)cccc1F)N1C[C@@H](F)[C@H]1CNS(=O)(=O)CF [Example 430, 1-fluoro-N-({(2R,3R)-3-fluoro-1-[(1S,2S)-2-fluoro-2-(2′,5,6′-trifluoro[1,1′-biphenyl]-2-yl)cyclopropane-1-carbonyl]azetidin-2-yl}methyl)methanesulfonamide]",92
3,"O=C([C@@H]1C[C@@]1(F)c1ccc(F)cc1-c1c(F)cccc1F)N1C[C@@H](F)[C@H]1CNS(=O)(=O)CBr [Example 431, 1-bromo-N-({(2R,3R)-3-fluoro-1-[(1S,2S)-2-fluoro-2-(2′,5,6′-trifluoro[1,1′-biphenyl]-2-yl)cyclopropane-1-carbonyl]azetidin-2-yl}methyl)methanesulfonamide]",95
4,"CCCS(=O)(=O)NC[C@@H]1[C@H](F)CN1C(=O)[C@@H]1C[C@@]1(F)c1ccc(F)cc1-c1c(F)cccc1F [Example 433, N-({(2R,3R)-3-fluoro-1-[(1S,2S)-2-fluoro-2-(2′,5,6′-trifluoro[1,1′-biphenyl]-2-yl)cyclopropane-1-carbonyl]azetidin-2-yl}methyl)propane-1-sulfonamide]",95
5,"CS(=O)(=O)NC[C@@H]1CCN1C(=O)C1(CO)CC1c1ccc(F)cc1-c1c(F)cccc1F (stereo partly drawn) [Example 434, N-({(2S)-1-[(1R,2S)-1-(hydroxymethyl)-2-(2′,5,6′-trifluoro[1,1′-biphenyl]-2-yl)cyclopropane-1-carbonyl]azetidin-2-yl}methyl)methanesulfonamide, or N-({(2S)-1-[(1S,2R)-1-(hydroxymethyl)-2-(2′,5,6′-trifluoro[1,1′-biphenyl]-2-yl)cyclopropane-1-carbonyl]azetidin-2-yl}methyl)methanesulfonamide]",96
6,"COCC1(C(=O)N2CC[C@H]2CNS(C)(=O)=O)CC1c1ccc(F)cc1-c1c(F)cccc1F (stereo partly drawn) [Example 435, N-({(2S)-1-[(1R,2S)-1-(methoxymethyl)-2-(2′,5,6′-trifluoro[1,1′-biphenyl]-2-yl)cyclopropane-1-carbonyl]azetidin-2-yl}methyl)methanesulfonamide, or N-({(2S)-1-[(1S,2R)-1-(methoxymethyl)-2-(2′,5,6′-trifluoro[1,1′-biphenyl]-2-yl)cyclopropane-1-carbonyl]azetidin-2-yl}methyl)methanesulfonamide]",101
7,"COCC1(C(=O)N2C[C@@H](F)[C@H]2CNS(C)(=O)=O)CC1c1ccc(F)cc1-c1c(F)cccc1F (stereo partly drawn) [Example 436, N-({(2R,3R)-3-fluoro-1-[(1R,2S)-1-(methoxymethyl)-2-(2′,5,6′-trifluoro[1,1′-biphenyl]-2-yl)cyclopropane-1-carbonyl]azetidin-2-yl}methyl)methanesulfonamide, or N-({(2R,3R)-3-fluoro-1-[(1S,2R)-1-(methoxymethyl)-2-(2′,5,6′-trifluoro[1,1′-biphenyl]-2-yl)cyclopropane-1-carbonyl]azetidin-2-yl}methyl)methanesulfonamide]",99
8,"CCS(=O)(=O)NC[C@@H]1[C@H](F)CN1C(=O)C1(COC)CC1c1ccc(F)cc1-c1c(F)cccc1F (stereo partly drawn) [Example 437, N-({(2R,3R)-3-fluoro-1-[(1R,2S)-1-(methoxymethyl)-2-(2′,5,6′-trifluoro[1,1′-biphenyl]-2-yl)cyclopropane-1-carbonyl]azetidin-2-yl}methyl)ethanesulfonamide, or N-({(2R,3R)-3-fluoro-1-[(1S,2R)-1-(methoxymethyl)-2-(2′,5,6′-trifluoro[1,1′-biphenyl]-2-yl)cyclopropane-1-carbonyl]azetidin-2-yl}methyl)ethanesulfonamide]",99
9,"CNS(=O)(=O)NC[C@@H]1[C@H](F)CN1C(=O)C1(COC)CC1c1ccc(F)cc1-c1c(F)cccc1F (stereo partly drawn) [Example 438, N-({(2R,3R)-3-fluoro-1-[(1R,2S)-1-(methoxymethyl)-2-(2′,5,6′-trifluoro[1,1′-biphenyl]-2-yl)cyclopropane-1-carbonyl]azetidin-2-yl}methyl)-N′-methylsulfuric diamide, or N-({(2R,3R)-3-fluoro-1-[(1S,2R)-1-(methoxymethyl)-2-(2′,5,6′-trifluoro[1,1′-biphenyl]-2-yl)cyclopropane-1-carbonyl]azetidin-2-yl}methyl)-N′-methylsulfuric diamide]",101
